Consider 16 compounds from ChEMBL document CHEMBL1135945, “CoMFA and HQSAR of acylhydrazide cruzain inhibitors” (Bioorg Med Chem Lett, 2002).

Structures are written as SMILES.

The assay deals with Cruzipain (Trypanosoma cruzi, UniProt P25779). Briefly: Inhibition of cruzain, the major cysteine protease from Trypanosoma cruzi.
Cruzipain, sequence (P25779 whole entry): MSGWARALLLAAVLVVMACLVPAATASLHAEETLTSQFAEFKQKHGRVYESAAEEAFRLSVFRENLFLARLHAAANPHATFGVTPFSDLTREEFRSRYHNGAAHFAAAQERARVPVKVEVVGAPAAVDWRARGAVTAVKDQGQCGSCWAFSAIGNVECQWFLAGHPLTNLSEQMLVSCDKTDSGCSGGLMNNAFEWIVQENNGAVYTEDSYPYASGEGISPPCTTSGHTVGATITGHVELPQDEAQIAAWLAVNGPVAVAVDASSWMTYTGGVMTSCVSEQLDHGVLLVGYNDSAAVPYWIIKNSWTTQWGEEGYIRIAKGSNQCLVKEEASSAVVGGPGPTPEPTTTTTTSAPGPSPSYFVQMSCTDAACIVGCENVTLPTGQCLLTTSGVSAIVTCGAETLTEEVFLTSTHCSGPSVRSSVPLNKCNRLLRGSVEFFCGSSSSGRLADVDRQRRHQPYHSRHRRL
Regarding `O=C(N/N=C/c1ccc(-c2ccccc2Cl)o1)c1cc2ccccc2cc1O`, half-maximal inhibition (IC50) was put at 0.603 µM.

In turn, `O=C(N/N=C/c1ccc([N+](=O)[O-])o1)c1cc2ccccc2cc1O` gave a half-maximal inhibitory concentration (IC50) of 6.03 µM.

Regarding `O=C(N/N=C/c1ccnc2ccccc12)c1ccccc1O`, the IC50 is 30.2 µM.

Turning to `CN(C)c1ccc(/C=N/NC(=O)c2ccc(O)c(O)c2)c2ccccc12`, the IC50 is 16.2 µM.

Consider `O=C(N/N=C/c1ccc(-c2cccc([N+](=O)[O-])c2)o1)c1ccc2ccccc2c1`, for which 6.03 µM corresponded to half-maximal inhibition (IC50).

For `COc1ccc(C(=O)N/N=C/c2ccoc2)c(OC)c1`, inhibition was half-maximal at 166 µM (IC50).

For `COc1cc(OC)cc(C(=O)N/N=C/c2ccc(C(=O)O)o2)c1`, the IC50 is 10 µM.

Consider `O=C(N/N=C/c1ccc(-c2ccccc2[N+](=O)[O-])o1)c1ccccc1O`, for which the IC50 is 20 µM. Against the preceding compound, the IC50 is about 2-fold higher.

Compound `O=C(N/N=C/c1cc(Br)cs1)c1cnc2ccccc2c1` showed an IC50 of 30.2 µM.

Consider `O=C(N/N=C/c1ccc([N+](=O)[O-])o1)c1cccc([N+](=O)[O-])c1`, for which the IC50 was 5.01 µM.

On to `O=C(N/N=C/c1ccc(C(=O)O)o1)c1cccc([N+](=O)[O-])c1`, for which the IC50 is 331 µM.

`CN(C)c1ccc(/C=N/NC(=O)c2ccnc3ccccc23)c2ccccc12` gave an IC50 of 6.03 µM.

Consider `O=C(N/N=C/c1ccc(-c2ccc(Cl)cc2)o1)c1ccccc1O`, for which the IC50 is 100 µM.

`CSc1ccc(/C=N/NC(=O)c2cccc(C)c2O)s1`: it took 10 µM to reach half-maximal inhibition (IC50).

`CN(C)c1ccc(/C=N/NC(=O)c2ccccc2)c2ccccc12` showed an IC50 of 0.501 µM.

Turning to `COc1ccc2cc(O)c(C(=O)N/N=C/c3ccc(-c4cc(C(F)(F)F)nn4C)s3)cc2c1`, the IC50 was 0.2 µM.
